Measured values published in PubChem BioAssay (NCI).
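1) Cells in 96-well plates. 2) Compound, 48 h, 5 concentrations. 3) Linear interpolation between surrounding doses. 4) Unreached endpoint = highest concentration. The concentration for 50% growth inhibition is given as GI50. Definition used: TGI = concentration required for complete inhibition of growth.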

Legend:
Experiment in all cases: NCI-60 cell line screen, 48 h
CAKI-1 renal = test system: CAKI-1 renal
EKVX NSCLC = test system: EKVX NSCLC
HOP-92 NSCLC = test system: HOP-92 NSCLC
NCI-H23 lung = test system: NCI-H23 lung
NCI-H522 lung = test system: NCI-H522 lung
MOLT-4 leukemia = test system: MOLT-4 leukemia
HT29 colon = test system: HT29 colon
UO-31 renal = test system: UO-31 renal
T-47D breast = test system: T-47D breast
PC-3 prostate = test system: PC-3 prostate

Compound	TGI (CAKI-1 renal)	TGI (EKVX NSCLC)	TGI (HOP-92 NSCLC)	TGI (NCI-H23 lung)	TGI (NCI-H522 lung)	TGI (MOLT-4 leukemia)	TGI (HT29 colon)	TGI (UO-31 renal)	TGI (T-47D breast)	TGI (PC-3 prostate)	GI50 (CAKI-1 renal)	GI50 (EKVX NSCLC)	GI50 (HOP-92 NSCLC)	GI50 (NCI-H23 lung)	GI50 (NCI-H522 lung)	GI50 (PC-3 prostate)	GI50 (HT29 colon)	GI50 (UO-31 renal)	GI50 (T-47D breast)	GI50 (MOLT-4 leukemia)
CCCCCCCCCCCC(=O)OCC1OC(n2cc(F)c(=O)[nH]c2=O)C(N)C(OC(=O)CCCCCCCCCCC)C1O (stereo not drawn)	> 100 µM	> 100 µM	98.8 µM	> 100 µM	> 100 µM	> 100 µM	> 100 µM	> 100 µM	–	–	–	–	–	–	–	–	–	–	–	–
CO[C@@H]1[C@@H](OC2OC(C)C(OC3CC(C)(O)C(OC(=O)CC(C)C)C(C)O3)C(N(C)C)C2O)[C@@H](CC=O)C[C@@H](C)C(=O)/C=C/C2O[C@H]2C[C@@H](C)OC(=O)C[C@H]1OC(C)=O (stereo partly drawn)	–	> 100 µM	27 µM	45.8 µM	36 µM	27.7 µM	26.4 µM	73.6 µM	84.4 µM	38.4 µM	–	–	–	–	–	–	–	–	–	–
COc1ccc2c3c1C(=O)CCC3CO2 (stereo not drawn)	> 100 µM	> 100 µM	> 100 µM	> 100 µM	> 100 µM	> 100 µM	> 100 µM	> 100 µM	–	–	–	–	–	–	–	–	–	–	–	–
CCOC(=O)/N=C(\N)SCc1ccccc1	> 100 µM	> 100 µM	> 100 µM	> 100 µM	> 100 µM	> 100 µM	> 100 µM	> 100 µM	–	–	–	–	–	–	–	–	–	–	–	–
COc1ccc2[nH]cc(-c3nc(-c4cn(C)c5ccncc45)cs3)c2c1	3.35 µM	3.92 µM	3.63 µM	4.12 µM	3.52 µM	–	3.33 µM	3.36 µM	–	4.13 µM	1.84 µM	1.92 µM	1.9 µM	2.12 µM	1.74 µM	1.98 µM	1.53 µM	1.8 µM	–	–
Cc1c(C(=O)/C=C/c2ccc(Cl)cc2)[n+](=O)c2ccccc2n1[O-]	31.6 µM	31.2 µM	37.7 µM	22.2 µM	17 µM	45.6 µM	28.2 µM	29.9 µM	–	–	–	–	–	–	–	–	–	–	–	–
O=C(COc1cccc(/C=C2\COc3ccccc3C2=O)c1)Nc1nccs1	3.56 µM	17.1 µM	–	3.94 µM	3.19 µM	–	3.72 µM	2.91 µM	12.5 µM	3.46 µM	1.61 µM	4.11 µM	–	1.95 µM	1.52 µM	1.37 µM	1.94 µM	1.52 µM	3.13 µM	–
Nc1ccc2c(c1)C(=O)c1c(F)cccc1-2	> 100 µM	37.7 µM	93.3 µM	> 100 µM	> 100 µM	–	> 100 µM	> 100 µM	> 100 µM	> 100 µM	–	–	–	–	–	–	–	–	–	–
N#Cc1ccccc1C#C/C=C\C#Cc1ccc(OCCCNC(=O)c2cc3ccccc3[nH]2)cc1	48 µM	96.6 µM	–	98.2 µM	32.3 µM	23.4 µM	> 100 µM	35.4 µM	29.7 µM	45.2 µM	20.2 µM	17.1 µM	–	24.2 µM	13.9 µM	14.7 µM	30.9 µM	17 µM	12.4 µM	5.23 µM
Cn1c(CCC#N)nc2ccc(Br)cc2c1=O	> 100 µM	> 100 µM	> 100 µM	> 100 µM	> 100 µM	> 100 µM	> 100 µM	> 100 µM	–	–	–	–	–	–	–	–	–	–	–	–
O=S1(=O)CCN(Cc2ccccn2)CC1	> 100 µM	> 100 µM	> 100 µM	> 100 µM	> 100 µM	–	> 100 µM	> 100 µM	> 100 µM	> 100 µM	–	–	–	–	–	–	–	–	–	–
COc1ccc2c(c1)CC[C@@H]1[C@@H]2CC[C@@]2(C)[C@H]1CC1(CCCCC1)[C@@H]2O	33.9 µM	35.5 µM	33 µM	35.9 µM	36.6 µM	–	4.39 µM	47.2 µM	39.7 µM	21.7 µM	18.2 µM	18.3 µM	16 µM	18.6 µM	17.9 µM	7.93 µM	1.81 µM	16.8 µM	15.7 µM	–
O=C(OCCOCBr)c1ccccc1	> 100 µM	> 100 µM	> 100 µM	> 100 µM	> 100 µM	> 100 µM	> 100 µM	> 100 µM	–	–	–	–	–	–	–	–	–	–	–	–
O=[N+]([O-])c1ccccc1N=Nc1c(O)[nH]c2ccccc12	> 54.7 µM	97.6 µM	–	35.9 µM	> 100 µM	> 100 µM	> 100 µM	> 52.8 µM	> 100 µM	> 100 µM	–	–	–	–	–	–	–	–	–	–
COc1cnc2c(c1)C(=O)c1c-2n(CCCn2ccnc2)c(=O)c2cc(Cl)ccc12	> 100 µM	> 100 µM	56.2 µM	0.505 µM	10.1 µM	–	–	2.34 µM	0.309 µM	> 100 µM	0.0255 µM	0.251 µM	0.0726 µM	0.0382 µM	0.0276 µM	0.0667 µM	–	0.0264 µM	0.0263 µM	–
CCN(CC)c1ccc2c(c1)Oc1nc(N)c(C#N)c(N)c1C2Sc1ccc(SC)cc1 (stereo not drawn)	–	1.97 µM	3.43 µM	3.16 µM	4.31 µM	4.6 µM	4.61 µM	2.84 µM	3.94 µM	2.81 µM	–	0.528 µM	1.72 µM	1.58 µM	2.42 µM	1.41 µM	2.33 µM	1.51 µM	1.74 µM	1.33 µM
Nc1cc(-c2ccccc2)ccc1O	79.9 µM	> 100 µM	> 100 µM	> 100 µM	–	> 100 µM	> 100 µM	> 100 µM	> 100 µM	> 100 µM	17.9 µM	82.2 µM	> 100 µM	> 100 µM	–	21.6 µM	> 100 µM	34 µM	55.3 µM	51.9 µM
COC(=O)c1ccccc1NC(=O)/C(=N\NC(C)(C)C)C(C#N)c1nc(-c2ccc([N+](=O)[O-])cc2)cs1 (stereo not drawn)	> 100 µM	> 100 µM	> 100 µM	> 100 µM	–	> 100 µM	> 100 µM	> 100 µM	> 100 µM	> 100 µM	–	–	–	–	–	–	–	–	–	–
